Assays:
PI3Kα = target: T1, PI3Kα (Homo sapiens, UniProt P42336); assay: competitive fluorescence polarization kinase activity assay, PI3Kα; format: biochemical; details: fluorescence polarization kinase kit
T1 construct: purchased Perkin–Elmer
From the text: (§1) Initially, we directly tested the inhibition potency of the synthesized compounds on PI3K by using competitive fluorescence polarization kinase kits, as mentioned in previous investigations. […] According to the significance and research maturity of the isoforms as referenced, the PI3Kα and PI3Kγ isoforms were preliminarily included here.
(§2) The competitive fluorescence polarization kinase activity assay was used to test the inhibition potency on PI3K, as mentioned in previous investigations. In general, following the instruction of the Kit (Perkin–Elmer, Waltham, MA, USA), the 10 μL scale of PI3K activity reaction was conducted with the substrate diC8-PI(4,5)P2 in a solution containing 2.5 mM MgCl2, 5 mM HEPES, […] and 10 mM DTT at pH 7.0. Into the 10 μL reaction wells with 50 ng enzyme and […], different concentrations of the tested compounds were added, respectively. The mixture was incubated at room temperature for 3 h, and the reactions were then quenched. Afterwards, the phosphoinositide binding protein and the fluorescent dye-labeled phosphoinositide tracer were added in sequence. In the dark environment in 384-well black nonbinding plates (Corning, Corning, NY, USA), the further incubation lasted for 1 h. With appropriate filters, the polarization values of the corresponding dye were recorded to calculate the enzymatic activity of PI3K in this reacting procedure. This assay was universal for evaluating the activity of different PI3K isoforms.

[1] = tested on: HeLa (human epithelial cervical cancer cell line) cells; assay: anti-proliferation assay, MTT, HeLa cells; format: cell-based
Protocol: (§3) In this section, the anti-proliferation activity of the synthesized compounds 3a–3t was evaluated. Herein, HeLa (human epithelial cervical cancer cell line), HepG2 (human hepatoellular carcinoma cell line) and L02 (human normal hepatocyte line) cells were used. According to the affection on L02 cells, most of the tested compounds were low-toxic. […] Basically, many of the compounds in this series could inhibit the growth of HeLa and HepG2 cells effectively. The anti-proliferation inhibitory activity and the enzymatic inhibition potency indicated the consistent tendencies; the SAR of the observed anti-proliferation activity was also similar to that of the enzymatic inhibition, especially that of PI3Kγ inhibition; thus, the cellular inhibition might be caused by the effect on PI3K. […] Thus, HepG2 cells were selected to conduct further investigations at the protein level.
(§4) In this section, the cells included HeLa (human epithelial cervical cancer cell line), HepG2 (human hepatocellular cancer cell line) and L02 (human normal hepatocyte line) to evaluate the anti-proliferation activity of the synthesized compounds. The cells were cultured in Dulbecco’s modified eagle medium (DMEM, Hyclone) with the addition of 10% fetal bovine serum (FBS, BI), 2 mmol/L L-glutamine, 100 units/mL penicillin-streptomycin (Sigma-Aldrich, Saint Louis, MO, USA), […] (Hyclone, Logan, UT, USA). The environment was 5% CO2 contained atmosphere at 37 °C. The tests of anti-proliferative activity were conducted under a standard method with the typical dye 3-(4,5-dimethylthiazol-2-yl)-2,5-diphenyltetrazolium bromide (MTT) in triplicate. The LX300 Epson Diagnostic micro-plate reader (Nagano, Japan) was used to record the absorbance at 570 nm (OD570).

[2] = cytotoxicity, MTT, L02 cells; format: cell-based; details: human, L02 cells (human normal hepatocyte line)
Protocol: as §3, §4

[3] = tested on: HepG2 (human hepatocellular cancer cell line) cells; assay: anti-proliferation assay, MTT, HepG2 cells; format: cell-based; details: read-out: GI50 HepG2γ
Protocol: as §3, §4

PI3Kγ = target: T2, PI3Kγ (Homo sapiens, UniProt P48736); assay: competitive fluorescence polarization kinase activity assay, PI3Kγ; format: biochemical; details: for IC50: fluorescence polarization kinase kit
T2 construct: purchased Perkin–Elmer
From the text: as §1, §2

T1 sequence (P42336 whole entry, species assumed): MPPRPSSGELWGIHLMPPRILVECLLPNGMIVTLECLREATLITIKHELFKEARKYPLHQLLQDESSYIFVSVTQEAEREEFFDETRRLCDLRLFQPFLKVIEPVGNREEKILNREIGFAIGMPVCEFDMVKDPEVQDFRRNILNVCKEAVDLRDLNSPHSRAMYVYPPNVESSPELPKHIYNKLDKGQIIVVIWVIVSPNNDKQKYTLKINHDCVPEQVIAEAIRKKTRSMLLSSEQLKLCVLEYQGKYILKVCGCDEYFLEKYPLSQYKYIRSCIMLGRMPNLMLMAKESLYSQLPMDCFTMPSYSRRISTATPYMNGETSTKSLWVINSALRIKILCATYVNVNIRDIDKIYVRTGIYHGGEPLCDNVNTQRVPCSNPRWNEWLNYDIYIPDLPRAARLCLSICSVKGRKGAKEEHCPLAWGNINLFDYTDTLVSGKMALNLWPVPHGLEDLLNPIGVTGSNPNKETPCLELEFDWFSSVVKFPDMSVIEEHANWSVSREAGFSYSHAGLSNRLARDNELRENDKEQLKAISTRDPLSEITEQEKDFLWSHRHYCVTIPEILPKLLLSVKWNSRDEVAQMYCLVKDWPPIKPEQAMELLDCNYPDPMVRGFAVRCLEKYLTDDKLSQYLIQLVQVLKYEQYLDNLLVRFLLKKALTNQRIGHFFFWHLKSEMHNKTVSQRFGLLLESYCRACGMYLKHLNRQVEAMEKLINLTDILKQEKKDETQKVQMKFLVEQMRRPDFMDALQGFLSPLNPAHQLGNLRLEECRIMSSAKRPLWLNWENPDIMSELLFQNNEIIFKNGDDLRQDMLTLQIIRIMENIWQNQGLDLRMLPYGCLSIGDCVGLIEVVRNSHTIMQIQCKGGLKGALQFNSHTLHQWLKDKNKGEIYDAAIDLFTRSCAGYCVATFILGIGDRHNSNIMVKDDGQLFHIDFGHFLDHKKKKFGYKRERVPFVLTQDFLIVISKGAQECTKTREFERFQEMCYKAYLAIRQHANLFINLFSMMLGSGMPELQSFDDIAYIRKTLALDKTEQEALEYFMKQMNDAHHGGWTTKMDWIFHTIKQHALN
T1 sequence (P27986 whole entry partner, species assumed): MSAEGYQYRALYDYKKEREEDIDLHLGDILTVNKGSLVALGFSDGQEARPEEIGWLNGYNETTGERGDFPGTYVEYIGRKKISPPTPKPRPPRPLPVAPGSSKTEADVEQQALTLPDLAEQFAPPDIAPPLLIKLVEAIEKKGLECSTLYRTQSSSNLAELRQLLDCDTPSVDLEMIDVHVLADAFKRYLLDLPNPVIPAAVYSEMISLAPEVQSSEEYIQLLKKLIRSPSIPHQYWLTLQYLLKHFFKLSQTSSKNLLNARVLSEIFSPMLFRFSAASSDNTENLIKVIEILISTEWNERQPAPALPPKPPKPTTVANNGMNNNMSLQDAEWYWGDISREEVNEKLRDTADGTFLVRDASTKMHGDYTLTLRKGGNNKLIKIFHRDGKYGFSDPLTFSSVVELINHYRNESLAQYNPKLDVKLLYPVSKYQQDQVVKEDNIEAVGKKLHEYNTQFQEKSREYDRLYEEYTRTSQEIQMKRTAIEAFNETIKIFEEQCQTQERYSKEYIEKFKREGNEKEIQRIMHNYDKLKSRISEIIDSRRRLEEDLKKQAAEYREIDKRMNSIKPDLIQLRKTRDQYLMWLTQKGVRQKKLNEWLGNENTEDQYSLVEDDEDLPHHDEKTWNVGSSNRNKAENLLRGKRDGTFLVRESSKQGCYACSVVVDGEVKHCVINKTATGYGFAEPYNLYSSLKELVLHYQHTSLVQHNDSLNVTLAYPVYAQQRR
T2 sequence (P48736 whole entry, species assumed): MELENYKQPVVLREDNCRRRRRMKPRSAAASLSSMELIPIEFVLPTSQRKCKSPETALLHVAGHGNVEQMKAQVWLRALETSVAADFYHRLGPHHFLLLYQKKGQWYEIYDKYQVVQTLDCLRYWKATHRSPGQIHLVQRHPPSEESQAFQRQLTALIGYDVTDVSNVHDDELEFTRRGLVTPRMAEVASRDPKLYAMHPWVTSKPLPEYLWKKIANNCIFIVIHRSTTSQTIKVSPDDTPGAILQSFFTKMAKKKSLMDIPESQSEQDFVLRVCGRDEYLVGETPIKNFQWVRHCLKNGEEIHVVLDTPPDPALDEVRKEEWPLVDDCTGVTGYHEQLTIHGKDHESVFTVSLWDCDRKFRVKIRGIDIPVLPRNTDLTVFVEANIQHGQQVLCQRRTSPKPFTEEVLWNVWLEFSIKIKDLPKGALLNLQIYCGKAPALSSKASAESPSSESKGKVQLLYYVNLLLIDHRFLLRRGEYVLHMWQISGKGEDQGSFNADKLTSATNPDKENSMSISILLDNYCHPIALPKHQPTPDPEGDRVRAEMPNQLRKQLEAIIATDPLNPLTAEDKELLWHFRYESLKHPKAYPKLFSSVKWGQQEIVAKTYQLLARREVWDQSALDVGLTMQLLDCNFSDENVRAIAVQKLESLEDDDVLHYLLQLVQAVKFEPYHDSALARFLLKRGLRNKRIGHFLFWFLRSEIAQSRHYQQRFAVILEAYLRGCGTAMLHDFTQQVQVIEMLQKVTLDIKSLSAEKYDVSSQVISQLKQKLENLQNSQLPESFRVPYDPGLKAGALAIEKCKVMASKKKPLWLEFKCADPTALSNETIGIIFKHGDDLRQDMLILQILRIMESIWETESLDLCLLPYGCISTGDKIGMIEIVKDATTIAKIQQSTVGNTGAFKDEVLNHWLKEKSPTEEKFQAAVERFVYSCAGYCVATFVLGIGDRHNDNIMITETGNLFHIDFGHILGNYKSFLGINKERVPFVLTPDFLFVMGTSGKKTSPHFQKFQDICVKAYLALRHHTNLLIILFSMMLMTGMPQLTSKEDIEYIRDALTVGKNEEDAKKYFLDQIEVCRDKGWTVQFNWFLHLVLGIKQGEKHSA

SMILES	melting point	IC50 (PI3Kα)	GI50 [1]	CC50 [2]	GI50 [3]	IC50 (PI3Kγ)	selectivity index (PI3Kγ; ratio of the IC50 values for PI3Kα and PI3Kγ)
COc1ccc(C(=O)N2N=C(c3ccccc3)CC2c2cccs2)cc1OC (stereo not shown) [3a, (3,4-Dimethoxyphenyl)(3-phenyl-5-(thiophen-2-yl)-4,5-dihydro-1H-pyrazol-1-yl)methanone]	141 to 143 °C	> 100 µM	109 ± 5.8 µM	174 ± 10 µM	61.1 ± 3.2 µM	7.48 ± 0.22 µM	
COc1ccc(C(=O)N2N=C(c3ccccc3F)CC2c2cccs2)cc1OC (stereo not shown) [3b, (3,4-Dimethoxyphenyl)(3-(2-fluorophenyl)-5-(thiophen-2-yl)-4,5-dihydro-1H-pyrazol-1-yl)methanone]	118 to 120 °C	> 100 µM	77.9 ± 3.9 µM	152 ± 9.5 µM	50.2 ± 1.6 µM	4.43 ± 0.2 µM	
COc1ccc(C(=O)N2N=C(c3cccc(F)c3)CC2c2cccs2)cc1OC (stereo not shown) [3c, (3,4-Dimethoxyphenyl)(3-(3-fluorophenyl)-5-(thiophen-2-yl)-4,5-dihydro-1H-pyrazol-1-yl)methanone]	50 to 51 °C	30.9 ± 1.3 µM	26.3 ± 1.7 µM	94.5 ± 4.3 µM	20.4 ± 2 µM	4.21 ± 0.072 µM	
COc1ccc(C(=O)N2N=C(c3cccc(Br)c3)CC2c2cccs2)cc1OC (stereo not shown) [3d, (3-(3-Bromophenyl)-5-(thiophen-2-yl)-4,5-dihydro-1H-pyrazol-1-yl)(3,4-dimethoxyphenyl)methanone]	124 to 126 °C	78.7 ± 4 µM	57.1 ± 2.6 µM	120 ± 4.7 µM	42.6 ± 1.9 µM	2.22 ± 0.072 µM	
COc1ccc(C(=O)N2N=C(c3cccc([N+](=O)[O-])c3)CC2c2cccs2)cc1OC (stereo not shown) [3e, (3,4-Dimethoxyphenyl)(3-(3-nitrophenyl)-5-(thiophen-2-yl)-4,5-dihydro-1H-pyrazol-1-yl)methanone]	76 to 78 °C	2.08 ± 0.099 µM	5.9 ± 0.2 µM	58.4 ± 2.6 µM	5.51 ± 0.2 µM	1.12 ± 0.081 µM	
COc1ccc(C2=NN(C(=O)c3ccc(OC)c(OC)c3)C(c3cccs3)C2)cc1 (stereo not shown) [3f, (3,4-Dimethoxyphenyl)(3-(4-methoxyphenyl)-5-(thiophen-2-yl)-4,5-dihydro-1H-pyrazol-1-yl)methanone]	53 to 55 °C	26.6 ± 1.01 µM	23.7 ± 1.2 µM	112 ± 8.3 µM	15.1 ± 0.42 µM	0.57 ± 0.044 µM	46.7
COc1ccc(C(=O)N2N=C(c3ccc(OCc4ccccc4)cc3)CC2c2cccs2)cc1OC (stereo not shown) [3g, (3-(4-(Benzyloxy)phenyl)-5-(thiophen-2-yl)-4,5-dihydro-1H-pyrazol-1-yl)(3,4-dimethoxyphenyl)methanone]	60 to 62 °C	0.92 ± 0.056 µM	31.6 ± 0.9 µM	104 ± 5.4 µM	31.6 ± 1.4 µM	26.9 ± 1.4 µM	
COc1ccc(C(=O)N2N=C(c3ccc(SC)cc3)CC2c2cccs2)cc1OC (stereo not shown) [3h, (3-(4-((λ^1-Sulfanyl)-λ^5-methyl)phenyl)-5-(thiophen-2-yl)-4,5-dihydro-1H-pyrazol-1-yl) (3,4-dimethoxyphenyl)methanone]	63 to 65 °C	64.4 ± 3.6 µM	61.3 ± 2.3 µM	180 ± 4.6 µM	53.3 ± 1.9 µM	18.1 ± 1.7 µM	
COc1ccc(C(=O)N2N=C(c3ccc(C)cc3)CC2c2cccs2)cc1OC (stereo not shown) [3i, (3,4-Dimethoxyphenyl)(5-(thiophen-2-yl)-3-(p-tolyl)-4,5-dihydro-1H-pyrazol-1-yl)methanone]	165 to 167 °C	89.5 ± 3.4 µM	66.6 ± 1.2 µM	151 ± 8.9 µM	48.7 ± 1.8 µM	3.03 ± 0.085 µM	
COc1ccc(C(=O)N2N=C(c3ccc(-c4ccccc4)cc3)CC2c2cccs2)cc1OC (stereo not shown) [3j, (3-([1,1’-Biphenyl]-4-yl)-5-(thiophen-2-yl)-4,5-dihydro-1H-pyrazol-1-yl)(3,4-dimethoxyphenyl)methanone]	154 to 156 °C	3.92 ± 0.064 µM	75.7 ± 2.9 µM	196 ± 10 µM	50.6 ± 1 µM	> 100 µM	
COc1ccc(C(=O)N2N=C(c3ccc(-c4ccc(Br)cc4)cc3)CC2c2cccs2)cc1OC (stereo not shown) [3k, (3-(4’-Bromo-[1,1’-biphenyl]-4-yl)-5-(thiophen-2-yl)-4,5-dihydro-1H-pyrazol-1-yl)(3,4-dimethoxyphenyl)methanone]	75 to 77 °C	1.1 ± 0.061 µM	44.6 ± 2.1 µM	178 ± 8.7 µM	46.6 ± 1.3 µM	42.7 ± 2.6 µM	
COc1ccc(C(=O)N2N=C(c3ccc(Br)cc3)CC2c2cccs2)cc1OC (stereo not shown) [3l, (3-(4-Bromophenyl)-5-(thiophen-2-yl)-4,5-dihydro-1H-pyrazol-1-yl)(3,4-dimethoxyphenyl)methanone]	71 to 73 °C	17.1 ± 0.58 µM	20.1 ± 1.7 µM	86.6 ± 3.5 µM	15.5 ± 0.87 µM	5.11 ± 0.083 µM	
COc1ccc(C(=O)N2N=C(c3ccc(I)cc3)CC2c2cccs2)cc1OC (stereo not shown) [3m, (3,4-Dimethoxyphenyl)(3-(4-iodophenyl)-5-(thiophen-2-yl)-4,5-dihydro-1H-pyrazol-1-yl)methanone]	69 to 71 °C	75.6 ± 2.4 µM	57.9 ± 3.6 µM	141 ± 5.6 µM	40.1 ± 1.4 µM	2.52 ± 0.055 µM	
COc1ccc(C(=O)N2N=C(c3ccc4ccccc4c3)CC2c2cccs2)cc1OC (stereo not shown) [3n, (3,4-Dimethoxyphenyl)(3-(naphthalen-2-yl)-5-(thiophen-2-yl)-4,5-dihydro-1H-pyrazol-1-yl)methanone]	149 to 151 °C	12 ± 1.1 µM	11.1 ± 1.2 µM	62.6 ± 2.6 µM	8.85 ± 0.31 µM	1.79 ± 0.049 µM	
COc1ccc(C(=O)N2N=C(c3ccc(OC)c4ccccc34)CC2c2cccs2)cc1OC (stereo not shown) [3o, (3,4-Dimethoxyphenyl)(3-(4-methoxynaphthalen-1-yl)-5-(thiophen-2-yl)-4,5-dihydro-1H-pyrazol-1-yl)methanone]	72 to 74 °C	8.81 ± 0.17 µM	18.1 ± 0.85 µM	137 ± 4.7 µM	16.9 ± 0.36 µM	9.91 ± 0.26 µM	
O=c1cc(N2CCOCC2)oc2c(-c3ccccc3)cccc12 [LY294002, reference compound]			21.1 ± 2 µM	51.3 ± 1.4 µM	26.5 ± 1.9 µM		
